Test results from patent US6342501B1, “Pyrrolo[2,3-d] pyrimidines as antiviral agents” (The Regents of the University of Michigan, priority 1994, dated 2002).
Like-named read-outs stand apart in the source and are kept apart here.

Experiments:
[1] = system: human cytomegalovirus (HCMV); test: microbe, parasite or virus in culture; assay type: cell-based, Towne strain; settings: for IC50: Human betaherpesvirus 5, HFF, read-out: HCMV; for antiviral activity against HCMV (in words): comment on Table 1 data
Description: (§1) The routine growth and passage of KB and BSC-1 cells was performed in monolayer cultures using minimal essential medium (MEM) with either Hanks salts [MEM(H)] or Earle salts [MEM(E)] supplemented with 10% calf serum. The sodium bicarbonate concentration was varied to meet the buffering capacity required. Cultures of diploid human foreskin fibroblast (HFF) or MRC-5 cells were grown in medium consisting of MEM(E) with 10% fetal bovine serum. Cells were passaged at 1:2 to 1:10 dilutions according to conventional procedures by using 0.05% trypsin plus 0.02% EDTA in a HEPES buffered salt solution (HBS) [Shipman, C., Jr., Proc. Soc. […] HFF and MRC-5 cells were passaged only at 1:2 dilutions. The Towne strain, plaque-purified isolate Po, of HCMV was kindly provided by Dr. Mark Stinski, University of Iowa. The KOS strain of HSV-1 was used in most experiments and was provided by Dr. Sandra K. Weller, University of Conn.
Stock HCMV was prepared by infecting HFF cells at a multiplicity of infection (m.o.i.) of <0.01 plaque-forming units (p.f.u.) per cell. Cell growth medium was changed every four days until cytopathology was evident in all cells (approximately 21 days). Supernatant fluids were retained as the virus stock.
Virus titers were determined using monolayer cultures of HFF cells for HCMV and monolayer cultures of BSC-1 cells for HSV-1 as described earlier [Prichard, M. N., et al., J. Virol. […] Briefly, HFF or BSC-1 cells were planted as described above in 96-well cluster dishes and incubated overnight at 37. degree. C. in a humidified 3% C02 -97% air atmosphere. The next day cultures were inoculated with HCMV or HSV-1 and serially diluted 1:3 across the remaining eleven columns of the 96-well plate. Cultures were incubated at 37. degree. C. for 2 hr to permit virus adsorption and then virus inoculum was replaced with 0.2 ml of fresh medium. Cultures were incubated for seven days for HCMV, two or three days for HSV-1, the medium was removed, and the cell sheets were stained with 0.1% crystal violet in 20% methanol.
HFF cells in 24-well cluster dishes were infected with approximately 100 p.f.u. of HCMV per cm^2 cell sheet using the procedures detailed above. Following virus adsorption, compounds dissolved in growth medium were added to duplicate wells in four to eight selected concentrations. After incubation at 37° C. for 7 to 10 days, cell sheets were fixed, stained with crystal violet and microscopic plaques enumerated as described above.
After virus adsorption, inoculum was replaced with 0.2 mL of fresh medium containing test compounds. The first row of 12 wells was left undisturbed and served as virus controls. Each well in the second row received an additional 0.1 mL of medium with test compound at three times the desired final concentration. The contents of the 12 wells were mixed by repeated pipetting and then serially diluted 1:3 along the remaining wells. In this manner, six compounds could be tested in duplicate on a single plate with concentrations from […]. Plates were incubated at 37° C. for seven days, subjected to one cycle of freezing and thawing; aliquots from each of the eight wells of a given column were transferred to the first column of a fresh 96-well monolayer culture of HFF cells. Contents were mixed and serially diluted 1:3 across the remaining eleven columns of the secondary plate. Each column of the original primary plate was diluted across a separate plate in this manner. Cultures were incubated, plaques were enumerated, and titers calculated as described above.
(§2) Dose-response relationships were constructed by linearly regressing the percent inhibition of parameters derived in the preceding sections against logarithm 10 drug concentrations. […] Samples containing positive controls (acyclovir for HSV-1 and ganciclovir for HCMV) were used in all assays.

[2] = system: human foreskin fibroblasts (HFF cells); test: Cytotoxicity in stationary HFF cells (microscopic inspection of plaque assay cells); assay type: cell-based; settings: read-out: HFF
Description: (§3) Two different assays were used to explore cytotoxicity of selected compounds: (i) Cytotoxicity produced in stationary HFF cells was determined by microscopic inspection of cells used in plaque assays which were not affected by the virus [Turk, S. R., et al, Antimicrob.
as §2

KB cells = test: Cytotoxicity: KB cell growth (crystal violet staining); assay type: cell-based; settings: Homo sapiens, read-out: KBgrv
Description: as §3
Briefly, 96-well cluster dishes were planted with KB cells at 3000-5000 cells per well. After overnight incubation at 37° C., test compound was added in quadruplicate at six to eight concentrations. Plates were incubated at 37° C for 48 hours in a CO2 incubator, rinsed, fixed with 95% ethanol, and stained with 0.1% crystal violet. Acidified ethanol was added and plates read at 570 nm in a spectrophotometer designed to read 96-well ELISA assay plates.
as §2

[3] = system: herpes simplex virus type 1 (HSV-1); test: HSV-1 ELISA in BSC-1 cells; assay type: cell-based, KOS strain; settings: read-out: HSV-1
Description: as §1
High titer HSV-1 stocks were prepared by infecting BSC cells at an m.o.i. of <0.1 as detailed previously [Turk, S. R., et al., Antimicrob.
Ninety-six-well cluster dishes were planted with 10,000 BSC-1 cells per well in 200 μL per well of MEM(E) plus 10% calf serum. After overnight incubation at 37° C., selected drug concentrations in quadruplicate and HSV-1 at a concentration of 100 p.f.u./well were added. Following a 3-day incubation at 37° C., medium was removed, plates were blocked, rinsed, and horse radish peroxidase conjugated rabbit anti-HSV-1 antibody was added. Following removal of the antibody containing solution, plates were rinsed, and then developed by adding 150 μL per well of a solution of tetramethylbenzidine as substrate. The reaction was stopped with H2SO4 and absorbance was read at 450 and 570 nm. Drug effects were calculated as a percentage of the reduction in absorbance in the presence of each drug concentration compared to absorbance obtained with virus in the absence of drug.
as §2

[4] = Table 1, cytotoxicity, stationary HFF cells, visual
[5] = Human alphaherpesvirus 1, BSC-1, 72 h
[6] = Table 1, cytotoxicity, KB cell growth, 48 hours
[7] = Human alphaherpesvirus 1, 72 h, Table 1, fifty-percent inhibitory concentration, ELISA, BSC-1 cells, 3-day incubation

SMILES | IC50 [1] [µM] | IC50 [2, 4] [µM] | IC50 (KB cells; KB, 48 h) [µM] | IC50 [3, 5] [µM] | antiviral activity against HCMV (in words) [1] | IC50 ([2]; HFF) [µM] | IC50 (KB cells; [6]) [µM] | IC50 [3, 7] [µM]
CNc1ncnc2c1c(C#N)c(Br)n2CCc1ccccc1 [Compound 1463, 4-methylamino-6-bromo-7-(2-phenyl)ethyl-pyrrolo[2,3-d]pyrimidine-5-carbonitrile] | > 10 | > 10 |  |  |  |  |  | 
NC(=O)c1cn(Cc2ccc([N+](=O)[O-])cc2)c2ncnc(N)c12 [Compound 1412, 4-amino-7-(4-nitrobenzyl)-pyrrolo[2,3-d]pyrimidine-5-carboxamide] | 5 |  | > 100 | 45 | good to excellent antiviral activity | 100 |  | 
NC(=O)c1cn(CCCc2ccccc2)c2ncnc(N)c12 [Compound 1376, 4-amino-7-(3-phenyl)propyl-pyrrolo[2,3-d]pyrimidine-5-carboxamide] | 28 | 100 |  |  |  |  | 70 | 35
N#Cc1c(N)n(Cc2cccc(N)c2)c2ncnc(N)c12 [Compound 1455, 4,6-diamino-7-(3-aminobenzyl)-pyrrolo[2,3-d]pyrimidine-5-carbonitrile] | 6.5 | > 100 |  |  | Some activity |  | 40 | > 100
N#Cc1c(Br)n(Cc2ccc([N+](=O)[O-])cc2)c2ncnc(N)c12 [Compound 1331, 4-amino-6-bromo-7-(4-nitrobenzyl)-pyrrolo[2,3-d]pyrimidine-5-carbonitrile] | > 10 | > 10 |  |  |  |  | > 100 | > 100
Cc1ccc(Cn2c(Br)c(C#N)c3c(=O)[nH]cnc32)cc1 [Compound 1441, 4-oxo-6-bromo-7-(4-methylbenzyl)-pyrrolo[2,3-d]pyrimidine-5-carbonitrile] | 21 | 100 |  |  |  |  | 16 | 90
N#Cc1c(Br)n(CC=Cc2ccccc2)c2ncnc(N)c12 [Compound 1361, 4-amino-6-bromo-7-(3-phenyl)prop-2-enyl-pyrrolo[2,3-d]pyrimidine-5-carbonitrile] | > 100 | > 100 |  |  |  |  | > 100 | > 100
N#Cc1cn(Cc2ccc(F)cc2)c2ncnc(N)c12 [Compound 1429, 4-amino-7-(4-fluorobenzyl)-pyrrolo[2,3-d]pyrimidine-5-carbonitrile] | 1.8 | > 100 |  |  | good to excellent antiviral activity |  | 60 | 33
N#Cc1c(N)n(Cc2ccc([N+](=O)[O-])cc2)c2ncnc(N)c12 [Compound 1348, 4,6-diamino-7-(4-nitrobenzyl)-pyrrolo[2,3-d]pyrimidine-5-carbonitrile] | 0.6 | > 10 |  |  | good to excellent antiviral activity |  | > 100 | 156
NC(=O)c1cn(Cc2ccc(F)cc2)c2ncnc(N)c12 [Compound 1419, 4-amino-7-(4-fluorobenzyl)-pyrrolo[2,3-d]pyrimidine-5-carboxamide] | 4.2 |  | 50 | 16 | good to excellent antiviral activity | 100 |  | 
N#Cc1c(N)n(Cc2ccc(Br)cc2)c2ncnc(N)c12 [Compound 1389, 4,6-diamino-7-(4-bromobenzyl)-pyrrolo[2,3-d]pyrimidine-5-carbonitrile] | 0.2 | > 10 |  |  | good to excellent antiviral activity |  | 15 | > 100
N#Cc1cn(Cc2ccc(Cl)cc2)c2ncnc(N)c12 [Compound 1444, 4-amino-7-(4-chlorobenzyl)-pyrrolo[2,3-d]pyrimidine-5-carbonitrile] | 0.8 | > 10 |  |  | good to excellent antiviral activity |  | > 100 | 85
N#Cc1c(Br)n(CCc2ccccc2)c2ncnc(N)c12 [Compound 1351, 4-amino-6-bromo-7-(2-phenyl)ethyl-pyrrolo[2,3-d]pyrimidine-5-carbonitrile] | 1 | > 100 |  |  | excellent activity |  | > 100 | ≥ 222
N#Cc1c(Br)n(Cc2ccc(Cl)cc2)c2ncnc(N)c12 [Compound 1388, 4-amino-6-bromo-7-(4-chlorobenzyl)-pyrrolo[2,3-d]pyrimidine-5-carbonitrile] | 116 | 116 |  |  |  |  | > 100 | > 100
NC(=O)c1c(Br)n(Cc2ccc(Cl)cc2)c2ncnc(N)c12 [Compound 1443, 4-amino-6-bromo-7-(4-chlorobenzyl)-pyrrolo[2,3-d]pyrimidine-5-carboxamide] | > 10 |  | > 100 | > 100 |  | > 10 |  | 
N#Cc1cn(CC=Cc2ccccc2)c2ncnc(N)c12 [Compound 1372, 4-amino-7-(3-phenyl)prop-2-enyl-pyrrolo[2,3-d]pyrimidine-5-carbonitrile] | > 10 | > 10 |  |  |  |  | > 100 | > 100
N#Cc1c(N)n(Cc2cccc([N+](=O)[O-])c2)c2ncnc(N)c12 [Compound 1425, 4,6-diamino-7-(3-nitrobenzyl)-pyrrolo[2,3-d]pyrimidine-5-carbonitrile] | 5 | > 100 |  |  | Some activity |  | > 100 | > 100
NC(=O)c1cn(CCc2ccccc2)c2ncnc(N)c12 [Compound 1396, 4-amino-7-(2-phenyl)ethyl-pyrrolo[2,3-d]pyrimidine-5-carboxamide] | 17 | > 100 |  |  |  |  | 40 | 45
NC(=O)c1cn(Cc2cccc([N+](=O)[O-])c2)c2ncnc(N)c12 [Compound 1421, 4-amino-7-(3-nitrobenzyl)-pyrrolo[2,3-d]pyrimidine-5-carboxamide] | 42 |  | > 100 | > 100 |  | > 100 |  | 
